Laboratory results reported in patent US8637461B2, “Method of diagnosing and treating oxidative stress-impaired wound healing” (Kuwait University, priority 2011, dated 2014).

Experiments:
IRS-1 = IRS-1 Tyr612 phosphorylation, immunoprecipitation/western blotting in dermal fibroblasts; format: cell-based, rat
Experimental: (§1) Primary dermal fibroblasts were obtained from dorsal skin of female Goto Kakizaki (GK, age 12-15 months) rats, a model for non-obese type 2 diabetes, and their Wistar control counterparts. After sterilization in povidine solution, rat skin was washed in sterile water and rinsed in 70% ethanol in PBS. Epidermis and dermis were separated following overnight incubation in 0.25% trypsine/EDTA at 4 C. Dermis was cut into small pieces and incubated in Dulbecco's modified Eagle medium (DMEM; Invitrogen) containing collagenase (250 U/ml; Sigma) for thirty min at 37 C in 5% CO2 with constant agitation. The sections were triturated vigorously to release fibroblasts, which were collected by centrifugation. The cell pellet was washed two times with PBS, re-suspended in complete medium (DMEM supplemented with 10% fetal calf serum, penicillin (100 U/ml), streptomycin (100 μg/ml)), 2 mM L-glutamine and 10 mM HEPES) and then cultured under a standard condition.
(§2) A hypercortisolemic state was mimicked by exposing control fibroblasts to dexamethasone (Dexa, Sigma) administered at 20 ng/ml every other day for a duration of 8 days. Similarly, the state of low-grade inflammation in fibroblasts was recapitulated experimentally by exposing these cells to TNF-α (4 ng/ml every day for 4 days). […] The concentration of IGF-1 (50 ng/ml, Peprotech) was determined by prior dose response experiment.
Levels/activities of key intracellular molecules in the IGF-1 signaling cascade including IRS-1, IRS-1 Tyr-p-612, PI3K-p85α, IRS-1 Ser-p (307), PI3K, Akt, p-Akt, INK and p-JNK were assessed using western blotting/immunoprecipitation and commercially available ELISA-based assays.
Ice-cold radioimmunoprecipitation assay (RIPA) buffer was used for the extraction of proteins from fibroblasts. Immunoprecipitation was achieved by incubating cell homogenates with anti-IRS-1 antibody overnight at 4° C. followed by the addition of protein A/G-Agarose for additional two hours. Immunoprecipitates were separated using spin-collection filters (Cytosignal), washed once with RIPA buffer/3× with PBS and then elutated by the addition of Laemmli buffer. […] Antigen-antibody complexes were visualized by an enhanced chemiluminescence system on BioMax Light Film (Kodack) and then the densitometry was analyzed using Quantity One 1-D image software (BioRad, GS 800). All densitometry data were corrected for equal loading using the house keeping gene β-actin and they were expressed as fold change vs. control.

Akt = Akt phosphorylation, western blotting in dermal fibroblasts; format: cell-based, rat; conditions: diabetic, TNF-α- or dexamethasone-exposed cells; EUK-134; western blot
Experimental: as §1, with “The cell pellet was washed two times with PBS, re-suspended in complete medium (DMEM supplemented with 10% fetal calf serum, penicillin (100 U/ml), streptomycin (100 μg/ml)), 2 mM L-glutamine and 10 mM HEPES) and then cultured under a standard condition.” left out
(§3) A hypercortisolemic state was mimicked by exposing control fibroblasts to dexamethasone (Dexa, Sigma) administered at 20 ng/ml every other day for a duration of 8 days. […] The concentration of IGF-1 (50 ng/ml, Peprotech) was determined by prior dose response experiment.
(§4) Levels/activities of key intracellular molecules in the IGF-1 signaling cascade including IRS-1, IRS-1 Tyr-p-612, PI3K-p85α, IRS-1 Ser-p (307), PI3K, Akt, p-Akt, INK and p-JNK were assessed using western blotting/immunoprecipitation and commercially available ELISA-based assays. […]

cultured fibroblasts = assay: WST-based cell viability of cultured fibroblasts; parameters: species or system rat; conditions: EUK 100 μM, LA 500 μM
PI3K = PI3K ELISA kinase assay on fibroblast lysates; format: cell-based, rat; conditions: diabetic, TNF-α- or dexamethasone-exposed cells; co-exposure to EUK-134
Experimental: as §1, §3
PI3K activity was measured using PI3K ELISA (Echelon Biosciences Inc). […]

PI3K-p85α / IRS-1 = assay: Co-precipitation of PI3K p85α with IRS-1 in dermal fibroblasts; format: cell-based, rat; conditions: diabetic, TNF-α- or dexamethasone-exposed fibroblasts; EUK-134
Experimental: as §1, with “The cell pellet was washed two times with PBS, re-suspended in complete medium (DMEM supplemented with 10% fetal calf serum, penicillin (100 U/ml), streptomycin (100 μg/ml)), 2 mM L-glutamine and 10 mM HEPES) and then cultured under a standard condition.” left out
as §3, §4

dermal fibroblasts = assay: Collagen gel contraction assay with fibroblasts; format: cell-based, rat; conditions: diabetic, TNF-α- or dexamethasone-exposed cells; EUK-134
Experimental: as §1, §3
The ability of fibroblasts to migrate in response to IGF-I in each of our models of oxidative stress-induced IGF-1 resistance was also evaluated. […]

[1] = Body weight and fasting plasma parameters in diabetic and hypercortisolemic rats; format: in vivo, rat
Experimental: All animal procedures were performed in accordance with the NIH Guidance for the Care and Use of Laboratory Animals. The current study used, respectively the GK and Dexamethasone-treated rats as models for diabetes and hypercortisolemia. Dexamethasone was administered subcutaneously at a dose of 2.5 μg/kg body weight in the morning (8:00 AM) and in the evening (8:00 PM) for a duration of four weeks before wounding and this form of therapy continued during the course of healing. […] Weight and age-matched female Wistar rats (Kuwait University breeding colony) served as the corresponding controls. All of the animals were maintained under standard conditions with 12 hours on/off light cycle, commercial diet, and water ad libitum. GK rats destined for wounding were initially matched with regard to body weight (e.g., 230 to 250 g), and plasma levels of glucose, free fatty acids and insulin. These indices are commonly used to reflect the severity of the diabetic state.
Animals used for IGF-1 sensitivity (n=6/group) and wound healing (n=8) studies were partitioned into five study groups including control, diabetic, hypercortisolemic, diabetic+EUK and hypercortisolemic+EUK. The EUK-134 was administered for duration of four weeks before wound induction and it continued during the course of healing.

COL1A1 mRNA = assay: Real time PCR of COL1A1 mRNA in fibroblasts; format: cell-based, rat; conditions: diabetic, TNF-α- or dexamethasone-exposed cells; EUK-134
Experimental: as §1
as §2, with “experiment. […]” for “experiment.”

[2] = dexamethasone-treated (hypercortisolemic) rats + EUK-134 12.5 mg/kg ip every other day
[3] = diabetic (GK) rats + EUK-134 12.5 mg/kg ip every other day

PI3K enzymatic activity (PI3K): partially restored
SMILES: COc1cccc(C=NCCN=Cc2cccc(OC)c2[O-])c1[O-].[Cl-].[Mn+3] [EUK-134]
inhibition of IGF-1-induced IRS-1 Tyr612 phosphorylation (IRS-1; diabetic fibroblasts or normal fibroblasts exposed to TNF-α or dexamethasone, EUK-134): ameliorates the inhibition of IRS-1 phosphorylation | common defect in IGF-1 signaling (IRS-1; fibroblasts with diabetic, inflammatory or hypercortisolemia phenotypes, ROS suppressors): correct the common defect in IGF-1 signaling | Akt phosphorylation in response to IGF-1 (Akt): partially restored | effect on cell viability (WST-based technique) (cultured fibroblasts): minimum effect on cell viability | association of PI3K p85α with IRS-1 in response to IGF-1 (PI3K-p85α / IRS-1): restores this association | contractility in collagen gel assay (dermal fibroblasts): partially restores this contractility to control levels | FBG (fasting blood glucose) [1, 2]: 81 ± 12 mg/dL | FFA (free fatty acid) [1, 2]: 327 ± 16 µM | FPI (fasting plasma insulin) [1, 2]: 0.58 ± 0.052 ng/mL | FBG (fasting blood glucose) [1, 3]: 122 ± 18 mg/dL | FFA (free fatty acid) [1, 3]: 353 ± 18 µM | FPI (fasting plasma insulin) [1, 3]: 0.66 ± 0.05 ng/mL | abnormalities regarding lipid and carbohydrate profiles ([1]; diabetic and hypercortisolemic rats, chronic treatment with ROS suppressors): ameliorated | collagen mRNA synthesis (COL1A1 mRNA): returns it to approximately control levels
